Earlier results, collected in US5536812A, “Calcitonin analogue and use thereof” (Sanwa Kagaku Kenkyusho Co., Ltd., priority 1994, dated 1996).

Assays:
Wister male rat = settings: standard manufactured by Penisula Lab. Inc., Lot No. 015405
[1] = analogue of Jap. Pat. Hei 4-59795(A) / EP-A-0 464 549

Substance	Activity of the eel calcitonin standard (Wister male rat)	biological activities compared with native Salmon I calcitonin [1]
eel calcitonin	4500 IU/mg	
salmon I calcitonin-Hse^33 -NH2		substantially same with the native Salmon I calcitonin
